Measured values from patent US10519105B2, “KCNQ2-5 channel activator” (ONO PHARMACEUTICAL CO., LTD., priority 2016, dated 2019).
Values after ≈ are worked out from the molar mass of the structure shown.

Columns and labels:
[1] = biological target: T1, Human KCNQ2/3 channel (Homo sapiens, UniProt O43525+O43526); assay: Opening action with respect to KCNQ2/3 channel by depolarization stimulation (thallium influx, FLIPR); type: cell-based; details: concentration giving 50% of the maximum reaction of retigabine (10 μM); human KCNQ2/3 expressing CHO-DHFR- cells; read-out: KCNQ2/3 ECrtg50
T1 construct: expressed in transfected cells; host or cells: CHO-DHFR- cells
Protocol: Human KCNQ2/3 expression cells (CHO-DHFR− cells) were seeded in each well of a 384-well plate (collagen-coated, black, clear bottom) at 0.5×10^4 cells/50 μL per well and cultured using a MEM ALPHA medium (containing 10 vol % inactivated (56° C., 30 min) fetal bovine serum, 100 IU/mL penicillin, 100 μg/mL streptomycin, and 2 mM L-glutamine) at 37° C. in 5% CO2 for 18 to 24 hours. After the medium in the plate was removed, incubation (room temperature, 60 minutes, shading) was performed in a loading buffer (prepared by the method described in the manual of FluxOR Thallium Detection Kit (Invitrogen, F10016, F10017)). A KCNQ2/3 channel opening action (thallium influx into cells) by depolarization stimulation (5 mM potassium and 0.5 mM thallium) was measured by FLIPR TETRA (Molecular Devices). The compound of the present invention was treated 5 minutes before the depolarization stimulation, and the reaction induced by the depolarization stimulation was measured over time for 180 seconds. The channel opening action of the compound of the present invention was evaluated based on the change amount of the fluorescence intensity from the time before the depolarization stimulation to the time after the elapse of 180 seconds, and the concentration (ECrtg50) satisfying 50% of the fluorescence intensity change of a maximum reaction (in the treatment at 10 μM) of retigabine under the conditions of this experiment was calculated.

[2] = Stability in human liver microsomes; type: in vitro ADME; details: human liver microsomes 0.5 mg/mL, NADPH, 5 μM, 37° C., 15 minutes
Protocol: A test compound (a 10 mM DMSO solution, 5 μL) was diluted with a 50% aqueous acetonitrile solution (195 μL), whereby a 0.25 mM solution was prepared.
To a reaction vessel preheated to 37° C., 0.5 mg/mL of human liver microsomes (XenoTech, LLC) and 245 JLL of a 0.1 M phosphate buffer solution (pH 7.4) containing NADPH co-factor (BD Biosciences) were added, followed by preincubation for 5 minutes, and thereafter, the above-prepared test compound solution (5 μL) was added thereto to start a reaction (final concentration: 5 μM). Immediately after the start, a 20 μL portion was collected and added to 180 μL of acetonitrile containing an internal standard substance (warfarin) to stop the reaction. A 20 μL portion of this solution was stirred with 180 μL of a 50% aqueous acetonitrile solution on a plate equipped with a deproteinization filter, followed by suction filtration, and the filtrate was used as a standard sample.
After the above-prepared reaction solution was incubated at 37° C. for 15 minutes, a 20 μL portion of the solution was added to 180 μL of cooled acetonitrile (containing warfarin serving as an internal standard substance) to stop the reaction. A 20 μL portion of this solution was stirred with 180 μL of a 50% aqueous acetonitrile solution on a plate equipped with a deproteinization filter, followed by suction filtration, and the filtrate was used as a reaction sample.
A residual ratio (%) was calculated as follows. 1 μL of the sample solution was injected into LC-MS/MS (Discovery Max, manufactured by Thermo Scientific, Inc.), and a value obtained by dividing the peak area ratio of the reaction sample (peak area of test compound/peak area of internal standard substance) by the peak area ratio of the standard sample was multiplied by 100.

[3] = biological target: T2, hERG IKr current (Homo sapiens, UniProt Q12809); assay: Action on hERG IKr current (patch-clamp, HEK293 cells overexpressing hERG); type: cell-based; details: maximum tail current, 10 minutes after application, read-out: 50% hERG channel inhibitory activity
T2 construct: expressed in transfected cells; host or cells: HEK293 cells
T2 sequence (Q12809 whole entry): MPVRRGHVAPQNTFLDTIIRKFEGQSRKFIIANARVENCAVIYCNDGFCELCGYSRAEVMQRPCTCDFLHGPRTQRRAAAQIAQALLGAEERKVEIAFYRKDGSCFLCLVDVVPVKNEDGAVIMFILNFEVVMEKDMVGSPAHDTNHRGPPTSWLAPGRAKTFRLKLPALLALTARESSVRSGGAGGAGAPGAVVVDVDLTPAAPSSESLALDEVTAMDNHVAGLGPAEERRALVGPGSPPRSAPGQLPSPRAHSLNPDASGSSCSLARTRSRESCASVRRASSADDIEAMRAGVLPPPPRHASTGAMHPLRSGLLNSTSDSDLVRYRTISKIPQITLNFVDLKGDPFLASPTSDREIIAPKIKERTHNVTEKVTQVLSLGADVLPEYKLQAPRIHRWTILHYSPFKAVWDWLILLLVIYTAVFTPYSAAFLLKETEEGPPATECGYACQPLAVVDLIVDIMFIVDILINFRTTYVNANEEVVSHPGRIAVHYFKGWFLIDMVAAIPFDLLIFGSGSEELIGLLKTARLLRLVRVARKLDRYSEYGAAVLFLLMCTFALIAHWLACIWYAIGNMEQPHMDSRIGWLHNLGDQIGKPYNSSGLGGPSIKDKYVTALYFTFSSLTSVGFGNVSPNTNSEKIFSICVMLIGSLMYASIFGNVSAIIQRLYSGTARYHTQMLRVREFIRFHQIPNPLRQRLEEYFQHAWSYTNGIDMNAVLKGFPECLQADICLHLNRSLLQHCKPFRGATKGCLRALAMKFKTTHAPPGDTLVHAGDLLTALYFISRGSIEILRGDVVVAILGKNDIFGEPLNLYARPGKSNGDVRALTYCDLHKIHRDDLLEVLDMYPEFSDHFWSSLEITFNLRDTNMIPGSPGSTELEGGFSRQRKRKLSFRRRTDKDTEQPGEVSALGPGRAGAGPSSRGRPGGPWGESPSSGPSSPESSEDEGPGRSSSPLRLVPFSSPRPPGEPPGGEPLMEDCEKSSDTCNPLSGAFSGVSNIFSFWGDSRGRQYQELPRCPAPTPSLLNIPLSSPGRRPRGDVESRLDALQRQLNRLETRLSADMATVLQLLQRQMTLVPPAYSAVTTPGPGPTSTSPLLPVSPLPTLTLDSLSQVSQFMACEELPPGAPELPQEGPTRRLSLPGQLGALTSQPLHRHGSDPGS
Protocol: By using HEK293 cells overexpressing a human ether-a-go-go-related gene (hERG), the maximum tail current of the hERG IKr current induced by redepolarization pulse subsequent to depolarization pulse was measured by a patch-clamp method, and the percent change (suppression ratio) after 10 minutes from application of a test substance with respect to the maximum tail current before the application of the test substance was calculated (see, Biophysical Journal, vol. 74, pp. 230-241 (1998)).

[4] = Solubility test (DMSO precipitation method, Japanese Pharmacopoeia dissolution test second solution); type: physicochemical; details: aqueous buffer, kinetic from dmso stock, JP dissolution test second solution pH 6.8, room temperature, quantification range 5 to 100 μM
Protocol: A calibration curve solution was prepared at 0.1, 0.4, and 2 μM by diluting a test substance (a 10 mM DMSO solution) with acetonitrile and adding acetonitrile containing an internal standard substance (candesartan).
A sample solution was prepared as follows. 5 μL of the compound of the present invention (a 10 mM DMSO solution) was added to 495 μL of the Japanese Pharmacopoeia dissolution test second solution (pH: 6.8), followed by stirring at room temperature for 5 hours. Then, the solution was transferred to a solubility filter plate and subjected to suction filtration. The filtrate (20 μL) was diluted with acetonitrile, followed by adding acetonitrile containing an internal standard substance (candesartan).
Each of the calibration curve and sample solutions (5 μL) was injected into LC-MS/MS (Discovery Max, manufactured by Thermo Scientific, Inc.) and subjected to quantification (quantification range: 5 to 100 μM). The solubility in the case where the value equal to or less than the quantification range was obtained was defined as <5 μM, and the solubility in the case where the value equal to or more than the quantification range was obtained was defined as […].

[5] = system: bladder extracted from rat; assay: Relaxing action on bladder extracted from rat (carbachol-induced contraction, Magnus tube); details: rat bladder strip, carbachol 1 μM contraction; read-out: IC20 (percent change in tension -20%)
Protocol: Female Jcl:Wistar rats (CLEA Japan, Inc., body weight at use: 170 to 200 g) were anesthetized by intraperitoneal administration of about 40 mg/kg of pentobarbital (Somnopentyl, Schering Plough Animal Health Corporation), and killed by bloodletting. The bladder was extracted by abdominal incision and immediately thereafter immersed in ice-cooled Krebs buffer (Krebs Ringer bicarbonate buffer (Sigma-Aldrich Co. LLC) supplemented with sodium hydrogen carbonate (final concentration: 15 mM) and calcium chloride (final concentration: 2.5 mM)) saturated with a mixed gas (95% O2, 5% CO2).
The bladder body extracted from each rat was cut into an oblong strip shape (about 10×3 mm), whereby a specimen was prepared on ice. Immediately thereafter, the specimen was suspended in a Magnus tube filled with Krebs buffer (37° C.) bubbled with the mixed gas while applying a tension load of 500 mg thereto. Incidentally, the specimen was prepared within 24 hours after extracting the tissue.
After the elapse of one hour or more from the suspension of the specimen, 2.5 M KCl was added thereto to a final concentration of 100 mM, and the specimen in which a contraction reaction could be confirmed was used.
Carbachol (a contraction inducer) contraction was induced at a concentration of 1 μM. […] After the contraction reaction was stabilized, physiological saline or the compound of the present invention was added thereto to a final concentration of 1 nM, 10 nM, 100 nM, 1 μM, and […] in a cumulative manner from a low concentration.
The tension (mg) in the extracted bladder was used as an evaluation item. The tension was read using analysis software WAVE THERMO 1000. A percent change in tension after adding the compound of the present invention when the tension after adding the contraction inducer was taken as 0% was defined as a percent change in tension (%) and used as an evaluation index. The percent change in tension (%) is calculated according to the following formula. percent change in tension (%)={tension (mg) after adding compound of the present invention and the like−tension (mg) before adding contraction inducer}/{tension (mg) after adding contraction inducer−tension (mg) before adding contraction inducer}×100−100
The value at which the percent change in tension (%) was −20% was calculated as IC20 and used as an index of the relaxing action on the extracted bladder.

Row | SMILES | EC50 [1] [nM] | Residual ratio [2] [%] | IC50 [3] [nM] | solubility at 5 h [4] [µM] | IC20 [5] [nM]
1 | CC1(O)CCc2c1cc(Cl)c(NC(=O)NCc1ccc(C(F)(F)F)cn1)c2Cl (single isomer, unassigned) [Example 4(4), 1-(4,6-dichloro-1-hydroxy-1-methyl-2,3-dihydro-1H-inden-5-yl)-3-{[5-(trifluoromethyl)-2-pyridinyl]methyl}urea] | 300 | 98 | > 10000 | – | –
2 | CC1(O)CCc2c1cc(Cl)c(NC(=O)OCc1ccc(F)cc1)c2Cl (stereo not shown) [Example 3(19), 4-fluorobenzyl(4,6-dichloro-1-hydroxy-1-methyl-2,3-dihydro-1H-inden-5-yl)carbamate] | 50 | 83 | – | 76 (≈ 29.2 µg/mL) | –
3 | O=C(NCc1ccc(C(F)(F)F)cn1)Nc1c(Cl)cc2c(c1Cl)CCC2(O)C(F)(F)F (stereo not shown) [Example 12(4), 1-[4,6-dichloro-1-hydroxy-1-(trifluoromethyl)-2,3-dihydro-1H-inden-5-yl]-3-{[5-(trifluoromethyl)-2 pyridinyl]methyl}urea] | 2 | 77 | – | 87 (≈ 42.5 µg/mL) | 10
4 | C[C@@H](NC(=O)Nc1c(Cl)cc2c(c1Cl)CCC2(O)C(F)(F)F)c1ccc(F)cc1 (stereo partly drawn) [Example 12(5), 1-[4,6-dichloro-1-hydroxy-1-(trifluoromethyl)-2,3-dihydro-H-inden-5-yl]-3-[(1R)-1-(4-fluorophenyl)ethyl]urea] | – | – | > 10000 | – | 30
5 | Cc1cc(CNC(=O)Nc2c(Cl)cc3c(c2Cl)CCC3(O)C(F)(F)F)no1 (stereo not shown) [Example 12(8), 1-[4,6-dichloro-1-hydroxy-1-(trifluoromethyl)-2,3-dihydro-1H-inden-5-yl]-3-[(5-methyl-1,2-oxazole-3-yl)methyl]urea] | 200 | 100 | – | 94 (≈ 39.9 µg/mL) | –
6 | O=C(NCC1CC1)Nc1c(Cl)cc2c(c1Cl)CCC2(O)C(F)(F)F (stereo not shown) [Example 12(13), 1-(cyclopropylmethyl)-3-[4,6-dichloro-1-hydroxy-1-(trifluoromethyl)-2,3-dihydro-1H-inden-5-yl]urea] | 60 | 100 | – | 78 (≈ 29.9 µg/mL) | –
7 | O=C(NCc1ccc(F)cc1)Nc1c(Cl)cc2c(c1Cl)CCC2(O)C(F)(F)F (stereo not shown) [Example 12, 1-[4,6-dichloro-1-hydroxy-1-(trifluoromethyl)-2,3-dihydro-1H-inden-5-yl]-3-(4-fluorobenzyl)urea] | 5 | 94 | > 10000 | 82 (≈ 35.9 µg/mL) | 10
8 | C[C@@H](NC(=O)Nc1c(Cl)cc2c(c1Cl)CC[C@]2(O)C(F)(F)F)c1ccc(F)cc1 [Example 21, 1-[(1R)-4,6-dichloro-1-hydroxy-1-(trifluoromethyl)-2,3-dihydro-1H-inden-5-yl]-3-[(1R)-1-(4-fluorophenyl)ethyl]urea] | 5 | 95 | – | 72 (≈ 32.5 µg/mL) | –
9 | CC1(C)CC(C)(O)c2cc(Cl)c(NC(=O)NCc3ccc(C(F)(F)F)cn3)c(Cl)c21 (stereo not shown) [Example 35, 1-(4,6-dichloro-1-hydroxy-1,3,3-trimethyl-2,3-dihydro-1H-inden-5-yl)-3-{[5-(trifluoromethyl)-2 pyridinyl]methyl}urea] | 300 | 81 | – | 80 (≈ 37 µg/mL) | –
10 | CC1(O)c2cc(Cl)c(NC(=O)NCc3ccc(F)cc3)c(Cl)c2CC1(F)F (stereo not shown) [Example 42, 1-(4,6-dichloro-2,2-difluoro-1-hydroxy-1-methyl-2,3-dihydro-1H-inden-5-yl)-3-(4-fluorobenzyl)urea] | 200 | 90 | > 10000 | 87 (≈ 36.5 µg/mL) | 100
